Test results taken from patent publication US6809096B1, “Phenanthroline-7-one derivatives and their therapeutic uses” (Laboratoire L. Lafon, priority 1999, dated 2004).

Assays:
leukaemia cell model = details: cytotoxicity; cited from earlier work
[1] = test system: 12 human cancer cell lines (U-373MG, U-87MG, SW1088, A549, A-427, HCT-15, LoVo, T-47D, MCF7, J82, T24, PC-3); assay: Cytotoxic activity on tumour cell lines in culture (MTT test); assay type: cell-based; details: Homo sapiens, mean IC50 calculated from the individual cytotoxic activities on each of the 12 tumour lines, 72 hours incubation
Procedure: 1—Cytotoxic Activity on Tumour Cell Lines in Culture (MTT Test)
The influence of the compounds of formula (I) and of (Ia) on tumour cells was evaluated using the MTT calorimetric test (T. Mosman, J. Immunol. Methods, 1983; 65: 55-63, J. Carmichael et al., Cancer Res. 1987; 47: 936-942).
The principle of the MTT test is based on the mitochondrial reduction by metabolically active alive cells of the yellow-coloured product MTT (3-(4,5-dimethylthiazol-2-yl)-2,5-diphenyltetrazolium bromide) to a blue-coloured product, formazan. The amount of formazan thus obtained is directly proportional to the amount of live cells present in the culture well or wells. This amount of formazan is measured by spectrophotometry.
The cell lines are maintained in monolayer culture at 37° C. in stoppered culture dishes containing 25 MM HEPES MEM (Minimum Essential Medium) base medium. This medium is well suited to the growth of a range of varied diploid or primary mammalian cells. This medium is subsequently supplemented: […]
with an amount of 5% of FCS (Foetal Calf Serum) decomplemented at 56° C. for 1 hour, with 0.6 mg/ml of L-glutamine, with 200 IU/ml of penicillin, with 200 μg/ml of streptomycin, with 0.1 mg/ml of gentamicin.
The 12 human cancer cell lines which were used were obtained from the American Type Culture Collection (ATCC, Rockville, Md., USA). These 12 cell lines are:
U-373MG (ATCC code: HTB-17) and U-87MG (ATCC code: HTB-14), which are two glioblastomas, SW1088 (ATCC code: HTB-12) which is an astrocytoma, A549 (ATCC code: CCL-185) and A-427 (ATCC code: HTB-53), which are two non-small-cell lung cancers, HCT-15 (ATCC code: CCL-225) and LoVo (ATCC code: CCL-229), which are two colorectal cancers, T-47D (ATCC code: HTB-133) and MCF7 (ATCC code: HTB-22), which are two breast cancers, J82 (ATCC code: HTB-1) and T24 (ATCC code: […]), which are two bladder cancers, PC-3 (ATCC code: CRL-1435), which is a prostate cancer.
Experimentally: 100 μl of a cell suspension comprising 20 000 to 50 000 (depending on the cell type used) cells/ml of culture medium are inoculated in flat-bottomed 96-well multi-well plates and are incubated at 37° C. under an atmosphere comprising 5% of CO2 and 70% humidity. After incubating for 24 hours, the culture medium is replaced with 100 μl of fresh medium comprising either the various test compounds at concentrations varying from 10^−5 to 10^−10 M of the solvent used to dissolve the -test products (control condition). After incubating for 72 hours under the above conditions, the culture medium is replaced with 100 μl of a yellowish solution of MTT dissolved, in a proportion of 1 mg/ml, in RPMI 1640. The microplates are reincubated for 3 hours at 37° C. and then centrifuged for 10 minutes at 400 g. The yellowish MTT solution is removed and the blue formazan crystals formed at the cellular level are dissolved in 100 μl of DMSO. The microplates are subsequently agitated for 5 minutes. The intensity of the resulting blue coloration, and thus of the conversion of the yellow MTT product into blue formazan by the cells which are still alive at the end of the experiment, is quantified by spectrophotometry using a device of DYNATECH IMOASSAY SYSTEM type at wavelengths of 570 nm and 630 nm corresponding respectively to the maximum absorption wavelengths of formazan and to the background noise. Software built into the spectrophotometer calculates the mean optical density values and the standard deviation (Std. Dev.) and standard error of the mean (SEM) values.
The inhibitory activity on the cell growth of the compounds of formula (I) and (Ia) on the various tumour cell lines was measured in comparison with that of the natural product.

[2] = Determination of the maximum tolerated dose (MTD); details: mouse, in vivo, ip; B6D2F1/Jico mice, single intraperitoneal administration, survival over 14 days, doses 2.5 to 160 mg/kg; read-out: DMT (mg/kg) (Maximum Tolerated Doses)
Procedure: 2—Determination of the Maximum Tolerated Dose (MTD)
The evaluation of the maximum tolerated dose was carried out on B6D2F1/Jico mice aged from 4 to 6 weeks. The compounds were administered intraperitoneally at increasing doses ranging from 2.5 to 160 mg/kg. The value of the MTD (expressed in mg/kg) is determined from the observation of the survival rates of the animals over a period of 14 days after a single administration of the product under consideration. The change in the weight of the animals is also monitored over this period. When that the value of the MTD is greater than 160 mg/kg, the value of the MTD is categorized as 160 mg/kg by default.

melting point [°C] | Molecule | ED50 (leukaemia cell model) [µg/mL] | IC50 [1] [nM] | MTD at 14 days [2] [mg/kg]
– | 2-bromoleptoclinidone | 0.4 | – | –
– | O=C1c2nccc(O)c2-c2nccc3ccnc1c23 [CRL 8388, 11-Hydroxy-7H-pyrido[4,3,2-de][1,7]phenanthroline-7-one] | – | 6200 | 10
> 260 | I.I.O=C1c2ncccc2-c2nccc3c(O)cnc1c23 [CRL 8487, 4-Hydroxy-7H-pyrido[4,3,2-de][1,7]phenanthroline-7-one dihydroiodide] | – | – | –
– | COc1ccnc2c1-c1nccc3c(OC)cnc(c13)C2=O [CRL 8440, 4,11-Dimethoxy-7H-pyrido[4,3,2-de][1,7]phenanthroline-7-one] | – | 10 | 20
– | COc1cnc2c3c(nccc13)-c1cccnc1C2=O [CRL 8401, 4-Methoxy-7H-pyrido[4,3,2-de][1,7]phenanthroline-7-one] | – | 53 | > 160
> 260 | O=C1c2nc(O)ccc2-c2nccc3ccnc1c23 [CRL 8483, 9-Hydroxy-7H-pyrido[4,3,2-de][1,7]phenanthroline-7-one] | – | – | –
> 260 | COc1ccc2c(n1)C(=O)c1nccc3ccnc-2c13 [CRL 8484, 9-Methoxy-7H-pyrido[4,3,2-de][1,7]phenanthroline-7-one] | – | – | –
– | O=C1c2c(Cl)ccnc2-c2nccc3ccnc1c23 [CRL 8396, 8-Chloro-7H-pyrido[4,3,2-de][1,10]phenanthroline-7-one] | – | 600 | 20
– | COc1cnc2c3c(nccc13)-c1ncccc1C2=O [CRL 8400, 4-Methoxy-7H-pyrido[4,3,2-de][1,10]phenanthroline-7-one] | – | 380 | > 160
– | COc1ccnc2c1C(=O)c1nccc3ccnc-2c13 [CRL 8363, 8-Methoxy-7H-pyrido[4,3,2-de][1,10]phenanthroline-7-one] | – | 500 | 10
– | COc1ccnc2c1-c1nccc3ccnc(c13)C2=O [CRL 8364, 11-methoxy-7H-pyrido[4,3,2-de][1,7]phenanthroline-7-one] | – | 270 | 5
246 | CN(C)c1cc(Cl)nc2c1-c1nccc3ccnc(c13)C2=O [CRL 8486, 9-Chloro-11-dimethylamino-7H-pyrido[4,3,2-de][1,7]phenanthroline-7-one] | – | – | –
> 260 | COc1ccc2c(n1)C(=O)c1ncc(OC)c3ccnc-2c13 [CRL 8479, 4,9-Dimethoxy-7H-pyrido[4,3,2-de][1,7]phenanthroline-7-one] | – | – | –
– | COc1cnc2c3c(nccc13)-c1c(N(C)C)ccnc1C2=O [CRL 8441, 4-Methoxy-11-dimethylamino-7H-pyrido[4,3,2-de][1,7]phenanthroline-7-one] | – | 5000 | > 160
– | CN(C)c1ccnc2c1-c1nccc3ccnc(c13)C2=O [CRL 8367, 11-(Dimethylamino)-7H-pyrido[4,3,2-de][1,7]phenanthroline-7-one] | – | 1650 | 10
> 260 | O=C1c2ncccc2-c2nccc3c(Cl)cnc1c23 [CRL 8480, 4-Chloro-7H-pyrido[4,3,2-de][1,7]phenanthroline-7-one] | – | – | –
> 260 | COc1cc(OC)c2c(n1)C(=O)c1nccc3ccnc-2c13 [CRL 8485, 9,11-Dimethoxy-7H-pyrido[4,3,2-de][1,7]phenanthroline-7-one] | – | – | –
> 260 | CN(C)c1cnc2c3c(nccc13)-c1cccnc1C2=O [CRL 8481, 4-Dimethylamino-7H-pyrido[4,3,2-de][1,7]phenanthroline-7-one] | – | – | –
246 | CCOC(=O)c1cnc2c(c1)-c1nccc3ccnc(c13)C2=O [CRL 8482, 10-Ethoxycarbonyl-7H-pyrido[4,3,2-de][1,7]phenanthroline-7-one] | – | – | –
